Experimental findings from ChEMBL document CHEMBL1144555, “Chemoenzymatic synthesis and antimicrobial activity evaluation of monoglucosyl diglycerides” (2007) are described below.

SMILES strings stand for the structures. ≈ marks a conversion by molar mass, not a printed value. A value given as a limit tells only on which side of the number the result lay.

Format in all cases: functional
The subject of test [1] is Staphylococcus aureus. As to the kind of experiment: Antimicrobial activity against Staphylococcus aureus ATCC 25923.
Test [2] deals with Staphylococcus aureus. As to the kind of experiment: Antimicrobial activity against Staphylococcus aureus ATCC 105487.
A further test deals with Enterococcus faecalis. As to the kind of experiment: Antimicrobial activity against Enterococcus faecalis ATCC 29212.
Another test has as its system Bacillus subtilis. As to the kind of experiment: Antimicrobial activity against Bacillus subtilis ATCC 6633.
Another test relates to Escherichia coli. Kind of test: Antimicrobial activity against Escherichia coli ATCC 25922.
For the next test, the system named is Pseudomonas aeruginosa. Kind of test: Antimicrobial activity against Pseudomonas aeruginosa ATCC 27753.
Test [3] concerns Staphylococcus aureus. Kind of test: Antimicrobial activity against Staphylococcus aureus 52.
The subject of test [4] is Staphylococcus aureus. Kind of test: Antimicrobial activity against Staphylococcus aureus 85.
Test [5] concerns Staphylococcus aureus. As to the kind of experiment: Antimicrobial activity against Staphylococcus aureus 87.
For test [6], the system named is Mycobacterium tuberculosis. As to the kind of experiment: Antimicrobial activity against Mycobacterium tuberculosis H37Rv.
Test [7] deals with Mycobacterium tuberculosis. As to the kind of experiment: Antimicrobial activity against Mycobacterium tuberculosis H160.
Test [8] has as its system Mycobacterium tuberculosis. Kind of test: Antimicrobial activity against Mycobacterium tuberculosis H190.
Another test deals with Candida albicans. As to the kind of experiment: Antimicrobial activity against Candida albicans.
For a further test, the system named is Kluyveromyces marxianus. As to the kind of experiment: Antimicrobial activity against Candida pseudotropicalis.

Turning to `CC/C=C/C/C=C/C/C=C/CCCCCCCC(=O)OCC(CO[C@@H]1O[C@H](CO)[C@@H](O)[C@H](O)[C@H]1O)OC(=O)CCCCCCC/C=C/C/C=C/C/C=C/CC` (some centres undefined), the MIC in the test with Staphylococcus aureus [1], against Staphylococcus aureus [2], with Enterococcus faecalis, in the test with Bacillus subtilis, against Escherichia coli and with Pseudomonas aeruginosa was greater than 128 µg/mL throughout. The minimal inhibitory concentration (MIC) (against Staphylococcus aureus [3]; with Staphylococcus aureus [4]; against Staphylococcus aureus [5]; in test [6]; in [7]; in test [8]) was greater than 128 µg/mL throughout. The MIC in the test on Candida albicans and against Kluyveromyces marxianus was greater than 128 µg/mL throughout.
Regarding `CCCCCCCCCCCCCC(=O)OCC(CO[C@@H]1O[C@H](CO)[C@@H](O)[C@H](O)[C@H]1O)OC(=O)CCCCCCCCCCCCC` (some centres undefined), the MIC in the test on Staphylococcus aureus [1], against Staphylococcus aureus [2], in the test with Enterococcus faecalis, with Bacillus subtilis, against Escherichia coli and in the test on Pseudomonas aeruginosa was greater than 128 µg/mL each time. Further, the MIC (in the test on Staphylococcus aureus [3]; in the test on Staphylococcus aureus [4]; in the test on Staphylococcus aureus [5]; in test [6]; in test [7]; in test [8]) was greater than 128 µg/mL each time. Besides, the MIC in the test with Candida albicans and with Kluyveromyces marxianus was greater than 128 µg/mL each time.
Consider `CC/C=C/C/C=C/C/C=C/CCCCCCCC(=O)OC(COC(=O)CCCCCCC)CO[C@@H]1O[C@H](CO)[C@@H](O)[C@H](O)[C@H]1O` (mixture of isomers), for which the MIC is greater than 128 µg/mL against Staphylococcus aureus [1]; greater than 128 µg/mL against Staphylococcus aureus [2]; greater than 128 µg/mL in the test on Enterococcus faecalis; 128 µg/mL in the test with Bacillus subtilis; greater than 128 µg/mL in the test with Escherichia coli; greater than 128 µg/mL with Pseudomonas aeruginosa. The minimal inhibitory concentration (MIC) is greater than 128 µg/mL in the test with Staphylococcus aureus [3]; greater than 128 µg/mL against Staphylococcus aureus [4]; 64 µg/mL in the test with Staphylococcus aureus [5]; 64 µg/mL in test [6]; 128 µg/mL in test [7]; 64 µg/mL in test [8]. The minimum inhibitory concentration (MIC) against Candida albicans and with Kluyveromyces marxianus was greater than 128 µg/mL throughout.
In the case of `CC/C=C/C/C=C/C/C=C/CCCCCCCC(=O)OC(COC(=O)CCCCCCCCC)CO[C@@H]1O[C@H](CO)[C@@H](O)[C@H](O)[C@H]1O` (mixture of isomers), the minimal inhibitory concentration (MIC) in the test on Staphylococcus aureus [1], in the test with Staphylococcus aureus [2], in the test on Enterococcus faecalis, with Bacillus subtilis, in the test on Escherichia coli and in the test with Pseudomonas aeruginosa was greater than 128 µg/mL in each case. The MIC was greater than 128 µg/mL in the test with Staphylococcus aureus [3]; 64 µg/mL with Staphylococcus aureus [4]; 32 µg/mL with Staphylococcus aureus [5]; greater than 128 µg/mL in test [6]; greater than 128 µg/mL in test [7]; greater than 128 µg/mL in test [8]. For the same compound, the minimal inhibitory concentration (MIC) in the test on Candida albicans and in the test on Kluyveromyces marxianus was greater than 128 µg/mL each time.
Consider `CCCCCCCC(=O)OCC(CO[C@@H]1O[C@H](CO)[C@@H](O)[C@H](O)[C@H]1O)OC(=O)CCCCCCC` (mixture of isomers), for which the MIC against Staphylococcus aureus [1] is 16 µg/mL; in the test on Staphylococcus aureus [2] it was 32 µg/mL; in the test with Enterococcus faecalis it was 32 µg/mL; in the test with Bacillus subtilis, 16 µg/mL; in the test on Escherichia coli it was greater than 128 µg/mL; with Pseudomonas aeruginosa, greater than 128 µg/mL. Further, the MIC with Staphylococcus aureus [3] is greater than 128 µg/mL; in the test with Staphylococcus aureus [4], 16 µg/mL; with Staphylococcus aureus [5] it was 16 µg/mL; in [6] it was 64 µg/mL; in test [7], 64 µg/mL; in test [8], 64 µg/mL. Besides, the minimum inhibitory concentration (MIC) against Candida albicans and against Kluyveromyces marxianus was greater than 128 µg/mL in each case.
Consider `CCCCCCCCCC(=O)OCC(CO[C@@H]1O[C@H](CO)[C@@H](O)[C@H](O)[C@H]1O)OC(=O)CCCCCCCCC` (mixture of isomers), for which the minimal inhibitory concentration (MIC) in the test on Staphylococcus aureus [1], in the test on Staphylococcus aureus [2], against Enterococcus faecalis, against Bacillus subtilis, with Escherichia coli and against Pseudomonas aeruginosa was greater than 128 µg/mL in each case. The MIC against Staphylococcus aureus [3] was greater than 128 µg/mL; against Staphylococcus aureus [4], greater than 128 µg/mL; in the test with Staphylococcus aureus [5] it was 64 µg/mL; in [6], 128 µg/mL; in test [7], 64 µg/mL; in [8], 64 µg/mL. In addition, the MIC in the test with Candida albicans and against Kluyveromyces marxianus was greater than 128 µg/mL in each case.
In the case of `CCCCC/C=C/C/C=C/CCCCCCCC(=O)OC(COC(=O)CCCCCCC)CO[C@@H]1O[C@H](CO)[C@@H](O)[C@H](O)[C@H]1O` (mixture of isomers), the minimum inhibitory concentration (MIC) with Staphylococcus aureus [1] is greater than 128 µg/mL; against Staphylococcus aureus [2], greater than 128 µg/mL; in the test on Enterococcus faecalis it was greater than 128 µg/mL; with Bacillus subtilis it was 128 µg/mL; with Escherichia coli, greater than 128 µg/mL; in the test with Pseudomonas aeruginosa it was greater than 128 µg/mL. In addition, the MIC is greater than 128 µg/mL against Staphylococcus aureus [3]; greater than 128 µg/mL against Staphylococcus aureus [4]; 64 µg/mL with Staphylococcus aureus [5]; 64 µg/mL in test [6]; 128 µg/mL in test [7]; 64 µg/mL in [8]. The MIC against Candida albicans and in the test on Kluyveromyces marxianus was greater than 128 µg/mL each time.
For `CCCCCCCC/C=C/CCCCCCCC(=O)OC(COC(=O)CCCCCCCCC)CO[C@@H]1O[C@H](CO)[C@@H](O)[C@H](O)[C@H]1O` (mixture of isomers), the MIC in the test on Staphylococcus aureus [1] was 8 µg/mL; in the test with Staphylococcus aureus [2], greater than 128 µg/mL; in the test on Enterococcus faecalis, greater than 128 µg/mL; against Bacillus subtilis, 32 µg/mL; against Escherichia coli it was greater than 128 µg/mL; against Pseudomonas aeruginosa, greater than 128 µg/mL. Also, the MIC in the test on Staphylococcus aureus [3] is greater than 128 µg/mL; against Staphylococcus aureus [4], 128 µg/mL; against Staphylococcus aureus [5] it was greater than 128 µg/mL; in test [6] it was greater than 128 µg/mL; in test [7], greater than 128 µg/mL; in test [8] it was greater than 128 µg/mL. Moreover, the minimum inhibitory concentration (MIC) against Candida albicans and in the test on Kluyveromyces marxianus was greater than 128 µg/mL each time.
As to `CCCCC/C=C/C/C=C/CCCCCCCC(=O)OC(COC(=O)CCCCCCCCC)CO[C@@H]1O[C@H](CO)[C@@H](O)[C@H](O)[C@H]1O` (mixture of isomers), the MIC in the test on Staphylococcus aureus [1] was greater than 128 µg/mL; in the test on Staphylococcus aureus [2], 32 µg/mL; in the test with Enterococcus faecalis, 64 µg/mL; with Bacillus subtilis it was 128 µg/mL; against Escherichia coli, greater than 128 µg/mL; with Pseudomonas aeruginosa, greater than 128 µg/mL. Besides, the MIC in the test on Staphylococcus aureus [3] is greater than 128 µg/mL; against Staphylococcus aureus [4], 32 µg/mL; against Staphylococcus aureus [5], greater than 32 µg/mL; in [6], greater than 128 µg/mL; in [7] it was greater than 128 µg/mL; in test [8], greater than 128 µg/mL. Besides, the minimum inhibitory concentration (MIC) in the test with Candida albicans and in the test with Kluyveromyces marxianus was greater than 128 µg/mL in each case.
In the case of `O=C(O)c1cn(C2CC2)c2cc(N3CCNCC3)c(F)cc2c1=O` [CIPROFLOXACIN], the minimum inhibitory concentration (MIC) is 0.5 µg/mL (≈ 1.51 µM) in the test with Staphylococcus aureus [1]; 0.25 µg/mL (≈ 0.754 µM) in the test on Staphylococcus aureus [2]; 1 µg/mL (≈ 3.02 µM) with Enterococcus faecalis; 0.25 µg/mL (≈ 0.754 µM) with Bacillus subtilis; 1 µg/mL (≈ 3.02 µM) with Pseudomonas aeruginosa; greater than 4 µg/mL against Staphylococcus aureus [3]. Further, the MIC (in the test with Staphylococcus aureus [4]; against Staphylococcus aureus [5]; in test [6]; in test [7]; in test [8]) was 0.5 µg/mL (≈ 1.51 µM) each time.
Take `Clc1ccc(COC(Cn2ccnc2)c2ccc(Cl)cc2Cl)c(Cl)c1` (centres undefined) [MICONAZOLE]: the results for the MIC in the test on Candida albicans and against Kluyveromyces marxianus were 8 µg/mL (≈ 19.2 µM) and 0.5 µg/mL (≈ 1.2 µM), respectively.
